US8993566B2, “Quinoline compound composing 1,2,4-triazine-dione and use thereof” (Wuhan Shengyun Biopharma Co., Ltd., priority 2012, dated 2015)
Values after ≈ are worked out from the molar mass of the structure shown.

Experiments:
[1] = biological target: T1, c-Met kinase (His-tagged recombinant human Met (amino acids 974-end)) (Homo sapiens, UniProt P08581); test: c-Met Enzyme Activity Inhibition Assay (ELISA); assay type: biochemical; settings: 50 pM c-Met, 5 μM ATP, room temperature 20 min; for IC50: read-out: IC50 for inhibiting c-Met kinase (converted)
T1 construct: His-tagged recombinant human Met (amino acids 974-end); His
Protocol: c-Met Enzyme Activity Inhibition Assay
The assay for the determination of c-Met kinase activity is based on an enzyme linked immunosorbant assay (ELISA). A compound of Formula I, 50 pM c-Met (His-tagged recombinant human Met (amino acids 974-end), expressed by baculovirus), and 5 μM ATP in an assay buffer (25 mM MOPS, pH 7.4, 5 mM MgCl2, […], 100 μM sodium orthovanadate, 0.01% Triton X-100, 1 mM DTT, final DMSO concentration 1% (v/v)) were incubated on a plate coated with 0.25 mg/mL POT at room temperature for 20 min. The reaction mixture was removed by washing and the phosphorylated polymer substrate was detected with 0.2 μg/mL phosphotyrosine specific monoclonal antibody (PY20) conjugated to horseradish peroxidase (HRP). After the addition of 1M phosphoric acid to stop the development, the chromogenic substrate (TMB) color was quantitated by spectrophotometry at 450 nm.

[2] = tested on: human colon cancer cell HT-29; test: In vitro anti-tumor cell activity (MTT), HT-29; assay type: cell-based; settings: HT-29 cells, MTT, 72 h, Bliss method; for IC50: Homo sapiens, read-out: HT-29 IC50
Protocol: (§1) The digested cell solution was poured into a centrifuge tube, to which a culture media was added to stop the digestion. The centrifuge tube was centrifuged at 800 r/min for 10 min, the supernatant was removed gently and then 5 mL of the culture media was added. The cells were pipetted and mixed homogeneously. 10 μL cell suspension was taken into a cell counting plate for counting, wherein the cell concentration was adjusted to 10^4 cells/well. To each well of a 96-well plate, except for A1 well as blank control, was added 100 μL of the cell suspension. The 96-well plate was placed in an incubator and cultivated for 24 h. […] The 96-well plate was placed in an incubator and cultivated for 72 h. (3) The culture media containing the compounds in the 96-well plate was removed, and the cells were washed with phosphate buffered solution (PBS) twice. To each well was added 100 μL MTT (tetrazole) (0.5 mg/mL), after placing the plate in an incubator to incubate for 4 h, the MTT solution was removed and 100 μL dimethyl sulfoxide was added. The reaction product of survival cells with MTT, i.e. formazan, was dissolved completely by oscillation on a magnetic oscillator, and then placed into a microplate reader to measure the results, and the IC50 values of compounds could be deduced by Bliss method.

[3] = tested on: human gastric cancer cell MKN-45; test: In vitro anti-tumor cell activity (MTT), MKN-45; assay type: cell-based; settings: MKN-45 cells, MTT, 72 h, Bliss method; for IC50: Homo sapiens, read-out: MKN-45 IC50
Protocol: as §1

[4] = tested on: human hepatoma carcinoma cell line SMMC-7721; test: In vitro anti-tumor cell activity (MTT), SMMC-7721; assay type: cell-based; settings: SMMC-7721 cells, MTT, 72 h, Bliss method; for IC50: Homo sapiens, read-out: SMMC-7721 IC50
Protocol: as §1

[5] = tested on: human nonsmall-cell lung cancer cell H460; test: In vitro anti-tumor cell activity (MTT), H460; assay type: cell-based; settings: H460 cells, MTT, 72 h, Bliss method; for IC50: Homo sapiens, NCI-H460, read-out: H460 IC50
Protocol: as §1

T1 sequence (P08581 956-1390): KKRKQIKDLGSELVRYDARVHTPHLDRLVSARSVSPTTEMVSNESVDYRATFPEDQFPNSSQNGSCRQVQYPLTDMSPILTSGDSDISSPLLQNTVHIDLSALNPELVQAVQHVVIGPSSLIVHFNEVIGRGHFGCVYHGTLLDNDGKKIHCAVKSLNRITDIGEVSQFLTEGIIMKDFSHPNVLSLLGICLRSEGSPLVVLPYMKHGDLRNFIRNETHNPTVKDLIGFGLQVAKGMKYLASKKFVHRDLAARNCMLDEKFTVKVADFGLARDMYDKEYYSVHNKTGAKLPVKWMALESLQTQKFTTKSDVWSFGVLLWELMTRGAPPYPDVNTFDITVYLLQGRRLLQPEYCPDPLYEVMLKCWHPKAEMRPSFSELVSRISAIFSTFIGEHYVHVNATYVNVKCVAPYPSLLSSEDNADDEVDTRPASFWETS

IC50 [1]	IC50 [2]	IC50 [3]	IC50 [4]	IC50 [5]	Molecule	IC50 for inhibiting c-Met kinase [1]	HT-29 IC50 [2]	SMMC-7721 IC50 [4]	H460 IC50 [5]	MKN-45 IC50 [3]
0.783 µM	0.3 mg/L (≈ 0.443 µM)	0.027 mg/L (≈ 0.0399 µM)	0.34 mg/L (≈ 0.502 µM)	0.22 mg/L (≈ 0.325 µM)	COc1cc2c(Oc3ccc(NC(=O)c4nn(-c5ccc(F)c(F)c5)c(=O)n(C)c4=O)cc3F)ccnc2cc1OCCCN1CCCC1 [Example 16, N-[3-fluoro-4-[6-methoxy-7-[3-(1-pyrrolidyl)propyloxy]quinolin-4-oxy]phenyl]-2-(3,4-difluorophenyl)-4-methyl-3,5-dioxo-2,3,4,5-tetrahydro-1,2,4-triazine-6-carboxamide]					
					COc1cc2c(Oc3ccc(NC(=O)c4nn(-c5ccc(C)cc5)c(=O)n(C)c4=O)cc3F)ccnc2cc1OCCCN1CCN(C)CC1 [Example 15, N-[3-fluoro-4-[6-methoxy-7-[3-(4-methyl-1-piperazinyl)propyloxy]quinolin-4-oxy]phenyl]-2-(4-methylphenyl)-4-methyl-3,5-dicarbonyl-2,3,4,5-tetrahydro-1,2,4-triazine-6-carboxamide;]	0.009 mg/L	0.5 mg/L	0.79 mg/L	0.18 mg/L	
					N-[3-fluoro-4-[6-methoxy-7-[3-(1-piperidinyl)propyloxy]quinolin-4-oxy]phenyl]-2-(3-trifluoromethylphenyl)-4-methyl-3,5-dicarbonyl-2,3,4,5-tetrahydro-1,2,4-triazine-6-carboxamide [Example 22]	0.57 mg/L	0.12 mg/L	0.18 mg/L	0.26 mg/L	0.006 mg/L
0.0486 µM	0.06 mg/L (≈ 0.0911 µM)	0.021 mg/L (≈ 0.0319 µM)	0.11 mg/L (≈ 0.167 µM)	0.032 mg/L (≈ 0.0486 µM)	COc1cc2c(Oc3ccc(NC(=O)c4nn(-c5ccc(F)cc5)c(=O)n(C)c4=O)cc3F)ccnc2cc1OCCCN1CCCC1 [Example 6, N-[3-fluoro-4-[6-methoxy-7-[3-(1-pyrrolidyl]propyloxy]quinolin-4-oxy]phenyl]-2-(4-fluorophenyl)-4-methyl-3,5-dioxo-2,3,4,5-tetrahydro-1,2,4-triazine-6-carboxamide]					
					N-[3-fluoro-4-[6-methoxy-7-[3-(4-morpholinyl)propyloxy]quinolin-4-oxy]phenyl]-2-(4-methylphenyl)-4-methyl-3,5-dicarbonyl-2,3,4,5-tetrahydro-1,2,4-triazine-6-carboxamide [Example 13]	0.25 mg/L	0.19 mg/L	0.67 mg/L	0.28 mg/L	
					N-[3-fluoro-4-[6-methoxy-7-[3-(1-piperidinyl)propyloxy]quinolin]-4-oxy]phenyl]-2-phenyl-4-benzyl-3,5-dicarbonyl-2,3,4,5-tetrahydro-1,2,4-triazine-6-carboxamide [Example 46]		0.3 mg/L	1.4 mg/L	0.8 mg/L	0.1 mg/L
					N-[3-fluoro-4-[6-methoxy-7-[3-(1-piperidinyl)propyloxy]quinolin-4-oxy]phenyl]-2-(4-methylphenyl)-4-methyl-3,5-dicarbonyl-2,3,4,5-tetrahydro-1,2,4-triazine-6-carboxamide [Example 12]	0.18 mg/L	0.11 mg/L	0.74 mg/L	0.12 mg/L	
					N-[3-fluoro-4-[6-methoxy-7-[3-(4-morpholinyl)propyloxy]quinolin]-4-oxy]phenyl]-2-(2,4-dichlorophenyl)-4-benzyl-3,5-dicarbonyl-2,3,4,5-tetrahydro-1,2,4-triazine-6-carboxamide [Example 43]		0.32 mg/L	1.4 mg/L	0.65 mg/L	0.07 mg/L
